Source: patent US20220184081A1, “ANTIPRURITIC AGENT USING PAC1 RECEPTOR ANTAGONIST” (KAGOSHIMA UNIVERSITY, priority 2019, published 2022)
No end group written: not given here.

Columns and labels:
mouse PAC1 receptor = target: T1, mouse PAC1 receptor (Mus musculus, UniProt P70205); experiment: CREB phosphorylation by PACAP stimulus, Western blot, PAC1/CHO cells; assay type: cell-based; settings: PAC1/CHO cells; for CREB phosphorylation by PACAP (1 nM): compound 10 pM to 10 nM for 30 minutes before PACAP, FIG. 4A, 4C, 4D, 5
T1 construct: expressed in transfected cells; host or cells: CHO cells
T1 sequence (P70205 21-496): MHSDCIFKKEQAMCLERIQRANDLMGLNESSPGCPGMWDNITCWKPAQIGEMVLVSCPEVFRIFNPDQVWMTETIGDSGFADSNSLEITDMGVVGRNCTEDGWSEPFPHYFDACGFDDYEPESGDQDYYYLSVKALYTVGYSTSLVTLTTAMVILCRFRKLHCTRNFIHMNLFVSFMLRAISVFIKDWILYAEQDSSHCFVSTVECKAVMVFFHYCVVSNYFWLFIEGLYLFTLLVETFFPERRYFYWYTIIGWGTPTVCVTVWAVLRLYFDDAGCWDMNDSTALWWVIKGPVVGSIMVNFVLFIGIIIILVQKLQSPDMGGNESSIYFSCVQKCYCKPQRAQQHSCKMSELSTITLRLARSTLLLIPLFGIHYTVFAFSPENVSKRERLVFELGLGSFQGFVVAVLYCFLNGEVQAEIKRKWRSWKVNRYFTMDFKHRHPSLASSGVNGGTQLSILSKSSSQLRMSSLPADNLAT
Method: The effect of each compound on the phosphorylation of CREB (cAMP-responsive element-binding protein) produced by a PACAP stimulus was examined by Western blot analysis using an anti-phosphorylated CREB (pCREB) antibody with a mouse PAC1 receptor-expressing CHO cells (PAC1/CHO cells) and a mouse VPAC1 receptor-expressing CHO cells (VPAC1/CHO cells).
Specifically, treatment with a compound (PA-8, compound 2j and compound 2o) at 10 pM to 10 nM or a solvent therefor, DMSO (VEH: 0.1% DMSO-containing phosphate buffer solution) was performed for 30 minutes, 1 nM PACAP was then added, and protein was recovered within 30 minutes after a PACAP stimulus.
The effect of each compound on the phosphorylation of CREB (cAMP-responsive element-binding protein) produced by a PACAP stimulus was examined by Western blot analysis using an anti-phosphorylated CREB (pCREB) antibody with a mouse PAC1 receptor-expressing CHO cells (PAC1/CHO cells).

[1] = system: PACAP-induced itch behavior in mice; experiment: Itch behavior induced by PACAP intradermal administration; assay type: in vivo, mouse; settings: for biting, licking or scratching behavior induced by PACAP (100 pmol) intradermal administration: simultaneous intradermal administration with PACAP, 0.01 to 1 nmol, FIG. 7A, 8, 9
Source text: SLN indicates intradermal administration of normal saline. DMSO (10% solution, dissolved in normal saline) is a solvent for PA-8.
SLN indicates intradermal administration of normal saline. VEH (10% DMSO solution, dissolved in normal saline) is a solvent for PA-8 and the compound 2o.
SLN indicates intradermal administration of normal saline. VEH (10% DMSO solution, dissolved in normal saline) is a solvent for PA-9 and the compound 3d.

[2] = system: chloroquine-induced itch behavior in mice; experiment: Itch behavior induced by chloroquine intradermal administration; assay type: in vivo, mouse; settings: intrathecal pre-administration (i.t., 10 minutes before i.d.), 1 nmol; chloroquine 100 μg/10 μL; FIG. 10
Method: (§1) Chloroquine (100 μg/10 μL) was intradermally injected into the waist of each mouse (intradermal injection, i.d.). The reaction of biting, licking or scratching the injected site was defined as itch behavior, and the behavioral time was counted every 5 minutes. […] DMSO (10% solution, dissolved in normal saline) is a solvent for PA-8 or PA-9.

[3] = system: Compound 48/80-induced itch behavior in mice; experiment: Itch behavior induced by Compound 48/80 intradermal administration; assay type: in vivo, mouse; settings: intrathecal pre-administration (i.t., 10 minutes before i.d.), 1 nmol; Compound 48/80 100 μg/10 μL; FIG. 11
Method: as §1, with “Compound 48/80” for “Chloroquine”

[4] = system: atopic dermatitis mouse model; experiment: Atopic dermatitis mouse model (DNFB); assay type: in vivo, ICR mice; settings: 30 mg/kg p.o. 30 minutes before 1 hour video observation; FIG. 13
Method: The present test was carried out with reference to the method of Kitamura et al. that is a test system published as a method for evaluating itch in animals (Kitamura A., Takata R., Aizawa S., et al.: A murine model of atopic dermatitis can be generated by painting the dorsal skin with hapten twice 14 days apart, Scientific Rep., 8: 5988, 2018).
Five-week-old ICR mice (30 mice) were each placed in a cage, and were then conditioned for 1 week. Thereafter, three days before initiation of the test, the waist of each mouse was shaved. On the experiment start date, for the purpose of destroying the function of skin barrier, tape stripping was carried out, and 0.15% 2,4-dinitrofluorobenzene (DNFB) solution [acetone/olive oil (3:1)] was applied to the shaved waist of each mouse, using a 100-μIL pipette. Seven days later, the 0.15% DNFB solution was applied thereto once again, and two hours later, video observation was carried out for 1 hour. The shaved 30 mice were divided into 5 groups (6 mice per group), namely, a 30 mg/kg PA-8 oral (p.o.) administration group, a 30 mg/kg compound 2o oral (p.o.) administration group, a 30 mg/kg PA-9 oral (p.o.) administration group, a 30 mg/kg compound 3d (p.o.) administration group, and a solvent administration group (VEH: oral administration of 10% DMSO aqueous solution). Oral administration was carried out 30 minutes before initiation of the video observation.
An outline of the procedures of a behavioral experiment using the atopic dermatitis mouse model is shown in FIG. 12, and the results obtained by evaluating the time spent in scratching of each group are shown in FIG. 13.

psoriasis mouse model = experiment: Psoriasis mouse model (imiquimod); assay type: in vivo, ICR mice; settings: 30 mg/kg p.o. 30 minutes before 1 hour video observation; FIG. 14
Method: The present test was carried out with reference to the method of van der Fits et al. that is a test system published as a method for evaluating itch in animals (van der Fits L., Mounts S., Voerman J S A., et al.: Imiquimod-Induced Psoriasis-Like Skin Inflammation in Mice Is Mediated via the IL-23/IL-17 Axis, J. Immunol., 182, 5836-5845, 2009).
Five-week-old ICR mice (20 mice) were each placed in a cage, and were then conditioned for 1 week. Thereafter, three days before initiation of the test, the waist of each mouse was shaved. Then, 62.5 mg of commercially available imiquimod cream (5% Beselna Cream; MOCHIDA PHARMACEUTICAL CO., LTD.) was applied onto the shaved waist skin of the mice once a day for 5 days, so as to produce imiquimod-induced psoriasis model. Twenty-four hours after the final application of the cream (Day 5), video observation was carried out for 1 hour. The shaved 20 mice were divided into 5 groups (4 mice per group), namely, a 30 mg/kg PA-8 oral (p.o.) administration group, a 30 mg/kg compound 2o oral (p.o.) administration group, a 30 mg/kg PA-9 oral (p.o.) administration group, a 30 mg/kg compound 3d (p.o.) administration group, and a solvent administration group (VEH: oral administration of 10% DMSO aqueous solution). Oral administration was carried out 30 minutes before initiation of the video observation.

[5] = system: serotonin (5-HT)-induced itch mouse model; experiment: Serotonin (5-HT)-induced itch mouse model; assay type: in vivo; settings: intrathecal pre-administration 30 minutes before 5-HT 50 nmol i.d.; PA-8 0.1 or 1 nmol; P6-38 100 pmol; FIG. 1
Method: 5-HT (50 nmol, 10 μL) was intradermally injected into the waist of each mouse (intradermal injection, i.d.). The reaction of the mice to bite, lick or scratch the injected site was defined as an itch behavior, and the action time was measured every 5 minutes. […] SLN indicates the effects obtained in the case of administering normal saline instead of 5-HT. ACSF is an abbreviation of an artificial cerebrospinal fluid, which was a solvent for P6-38 and PA-8.

[6] = system: patients with atopic dermatitis; settings: patients with high severity, insufficient effect of topical steroids/tacrolimus; cited from earlier work
mice = experiment: Itch behavior upon waist intradermal administration of peptide; assay type: in vivo, mouse; settings: waist intradermal administration 10 μL; PACAP 1 to 1,000 pmol; VIP 100 pmol; FIG. 6
Source text: Accordingly, it is considered that this effect is mediated by the PAC1 receptors (FIG. 6).

| Compound | CREB phosphorylation by PACAP (1 nM) (mouse PAC1 receptor) | biting, licking or scratching behavior induced by PACAP (100 pmol) intradermal administration [1] | itch behavior induced by the DNFB treatment (time spent in scratching) [4] | itch behavior induced by application of imiquimod (time spent in scratching) (psoriasis mouse model) | further results |
| --- | --- | --- | --- | --- | --- |
| O=C(NCCc1c[nH]cn1)C1CC(=O)N(c2n[nH]c3ccccc23)C1 (centres unmarked) [PA-9] | suppressed depending on the concentration | suppressed in a dose-dependent manner | significantly suppressed | significantly suppressed | chloroquine-induced itch behavior [2]: almost completely suppressed; Compound 48/80-induced itch behavior [3]: almost completely suppressed |
| CCOc1cccc(C2CC(=O)Nc3nc(N)[nH]c(=O)c32)c1 (centres unmarked) [compound 2j, 2-Amino-5-(3-ethoxyphenyl)-5,8-dihydro-3H,6H-pyrido[2,3-d]pyrimidine-4,7-dione] | suppressed depending on the concentration | – | – | – | – |
| Nc1nc2c(c(=O)[nH]1)C(c1cccc(OC(F)(F)F)c1)CC(=O)N2 (centres unmarked) [compound 2o, 2-Amino-5-(3-trifluoromethoxyphenyl)-5,8-dihydro-3H,6H-pyrido[2,3-d]pyrimidine-4,7-dione] | suppressed CREB phosphorylation | suppressed in a dose-dependent manner | significantly suppressed | significantly suppressed | effect of suppressing CREB phosphorylation compared with PA-8 (mouse PAC1 receptor; 10 pM to 10 nM): slightly stronger effect of suppressing CREB phosphorylation than PA-8 |
| O=C(NCCc1c[nH]cn1)C1CC(=O)N(c2n[nH]c3c(Cl)cccc23)C1 (centres unmarked) [compound 3d, N-[2-(1H-imidazol-4-yl)ethyl]-1-(7-chloro-1H-indazol-3-yl)-5-oxo-3-pyrrolidinecarboxamide] | suppressed depending on the concentration | suppressed in a dose-dependent manner | significantly suppressed | significantly suppressed | – |
| O=C1CC[C@@]2(O)[C@H]3Cc4ccc(O)c5c4[C@@]2(CCN3CC2CC2)[C@H]1O5 [naltrexone] | – | – | – | – | itch behavior induced by PACAP (100 pmol) intradermal administration ([1]; subcutaneous administration 1 mg/kg 15 minutes before PACAP, FIG. 7B): significantly suppressed |
| PACAP 6-38 | – | – | – | – | 5-HT-induced itch behavior (bite, lick or scratch the injected site, action time) [5]: did not provide significant effects |
| dupilumab: human type anti-human IL-4/IL-13 receptor monoclonal antibody | – | – | – | – | share of patients for whom the drug is effective [6]: approximately 40% |
| vasoactive intestinal peptide (HSDAVFTDNYTRLRKQMAVKKYLNSILN; ends and bridges not checked; UniProt P01282 125-152, looked up) [VIP] | – | – | – | – | itch behavior (biting, licking or scratching the administered site) caused by the peptide (mice): such effect was not observed |
